The values below come from patent publication US20250228984A1, “Metallophore-Radionuclide Complex as Nuclear Imaging Contrast Agents” (priority 2024, published 2025).

The nature of data set [1]: iTLC and HPLC characterization of DFO complexes, 64Cu. Format: physicochemical. Conditions: 37° C. As to the method: (§1) Extensive HPLC and thin-layer chromatography (TLC) analysis of multiple radiometals with pyochelin or DFO were performed. Radiometals were combined with siderophore at ratio of 20 uCi/ug in 50 uL buffer. Buffers consisted of sodium acetate (NaOAc), ammonium acetate, and HEPES at pH 3.5, 5.5, and 7 respectively. Complexation was heated to either 37° C. for one hour or 50° C. for one hour. Gallium-68 was prepared by concentrating the generator eluate in 0.1 M HCl onto a 30 mg Strata-XC cartridge, which was then air dried and the gallium eluted with three 150 uL aliquots of acetone. Reactions with gallium-68 were then carried out by adding 5 μg of siderophore with 50 uL of pH 3.5 sodium acetate and ˜250 uCi of gallium-68 radiometal and incubated at 37° C. for 20 minutes. Reaction products were placed on HPLC at 5-50% acetonitrile for 15 minutes using a kinetex evo C-18 column.

Data set [2] is described as follows: iTLC and HPLC characterization of DFO complexes, 68Ga. It is filed as physicochemical. To be noted: for DFO complex, pH 3 / DFO complex, pH 5.5: 68Ga, 37° C. How it is done: as §1
Data set [3] in a line: Preliminary screen of Cu-64 with different siderophores (complexation). It is filed as physicochemical. Conditions: for Cu-64 screen with siderophore, pH 3 / Cu-64 screen with siderophore, pH 5.5 / Cu-64 screen with siderophore, pH 7.0 / Cu-64 screen with siderophore, pH 9: 64Cu. As to the method:
Preliminary in vitro data evaluating multiple siderophores with multiple radiometals to understand general binding characteristics was performed. To further evaluate Cu-64 binding affinity with Pch for in vivo applications, in vitro HPLC stability studies were performed to determine the percentage of bound Cu-64-Pch after incubation in serum. Samples were incubated for time points 0, 0.5, 1, 6, and 24. After incubation, samples were prepared for HPLC analysis by adding 500 uL of ammonium acetate with ethanol extraction solvent, spun at 12,000 RPM for 5 minutes. The top 2⁄3 of the supernatant was removed for HPLC analysis. After HPLC stability analysis, multiple HPLC purity studies were performed to determine the relative amount of free copper compared to Pch-bound copper. To prepare for purity analysis, 150 uCi of Cu-64 was incubated for 1 hour with varying amounts of 1 mg/mL pyochelin ranging from 0.5 to 10 uL, with ammonium acetate being added to reach a maximum volume of 350 uL. Additional purity studies were conducted using 150 uCi of Cu-64 along with 10 uL of 1 mg/mL pyochelin and ammonium acetate, but involved varying incubation periods consisting of 10, 20, 30, 45, and 60 minutes at 37° C. Lastly, UV chromatograms of Pch were generated using varying concentrations of Pch in ammonium acetate, consisting of 25, 50, 100, and 200 uL of Pch with ammonium acetate being added to reach 350 uL total volume. All HPLC analysis was conducted using 5-95% acetonitrile gradient over 10 minutes, with a flow rate of 1 mL/min using an Agilent Poroshell 120 EC-C18 column. Extensive HPLC and thin-layer chromatography (TLC) analysis of multiple radiometals with pyochelin or DFO were performed. Radiometals were combined with siderophore at ratio of 20 uCi/ug in 50 uL buffer. Buffers consisted of sodium acetate (NaOAc), ammonium acetate, and HEPES at pH 3.5, 5.5, and 7 respectively. […] Gallium-68 was prepared by concentrating the generator eluate in 0.1 M HCl onto a 30 mg Strata-XC cartridge, which was then air dried and the gallium eluted with three 150 uL aliquots of acetone. Reactions with gallium-68 were then carried out by adding 5 μg of siderophore with 50 uL of pH 3.5 sodium acetate and 250 uCi of gallium-68 radiometal and incubated at 37° C. for 20 minutes. Reaction products were placed on HPLC at 5-50% acetonitrile for 15 minutes using a […] evo C-18 column.

Data set [4] is described as follows: TLC analysis of pyochelin complexation with titanium-45. Format: physicochemical. As to the method:
(§2) All radiometals-pyochelin combinations were screened at pH 3.5, 5.5, and 7 at both 37° C. and 50° C. […] (FIG. 4F).
as §1

A short description of data set [5]: TLC analysis of pyochelin complexation with manganese-52. Format: physicochemical. How it is done:
as §2, §1

A short description of data set [6]: TLC analysis of pyochelin complexation with lead-203. It is filed as physicochemical. How it is done: as §2, §1
The nature of data set [7]: TLC analysis of pyochelin complexation with gallium-68. It is filed as physicochemical. How it is done:
as §2, §1

A short description of data set [8]: TLC analysis of pyochelin complexation with zirconium-89. Format: physicochemical. As to the method: as §2, §1
In data set [9] the test system is non-fptA expressing organisms. As to the kind of experiment: PET/CT imaging and lung biodistribution of Cu-64 Pch in infected mice, non-fptA organisms. Format: in vivo. How it is done: (§3) In vivo studies were performed using Balb/c mice. On day 1, Pseudomonas aeruginosa (PA01), Klebsiella pneumoniae, E. coli Nissle, E. coli UTI89, or Staphylococcus aureus bacterial concentrations of ˜3×10^6 CFU/mL were prepared via centrifugation at 7 k RPM and washed three times with 1 mL of phosphate-buffered saline (PBS). 100 uL of bacterial concentrates were administered to groups of 3 mice intra-nasally, along with one group receiving 0.9% saline. After 24 hours, Cu-64 Pch was prepared and given retro-orbitally at a dose of ˜150 uCi per mouse. 48 hours after bacterial administration, the mice underwent PET/CT imaging. Immediately after imaging, the mice were sacked, and the lungs harvested for radioactive biodistribution measurements.

In data set [10] the test system is fptA expressing P. aeruginosa. As to the kind of experiment: PET/CT imaging and lung biodistribution of Cu-64 Pch in infected mice, P. aeruginosa. Format: in vivo, Pseudomonas aeruginosa. As to the method:
as §3
(§4) An additional in vivo study was performed using only PA01 bacteria. In this example, the bacteria were administered via intra-tracheal route, rather than intra-nasal. This route of administration is limited to 20 uL. Similarly, Ga-68 pyochelin studies were performed as follows: on day 1, PA01 was grown overnight to a concentration of ˜3×10^6 CFU/mL. After overnight incubation, the bacteria was washed with PBS and 100 uL was administered intranasally to each mouse. 5 hours after bacterial administration, Ga-68 was prepared and given retro-orbitally at a dose of ˜150-200uCi per mouse. 1 hour after Ga-68 injection, the mice were imaged via PET/CT, followed by euthanasia for biodistribution of the lungs.

The nature of data set [11]: HPLC stability of Cu-64-Pch after incubation in serum. Format: in vitro ADME. To be noted: after 24 hours of serum incubation. As to the method:
Preliminary in vitro data evaluating multiple siderophores with multiple radiometals to understand general binding characteristics was performed. To further evaluate Cu-64 binding affinity with Pch for in vivo applications, in vitro HPLC stability studies were performed to determine the percentage of bound Cu-64-Pch after incubation in serum. Samples were incubated for time points 0, 0.5, 1, 6, and 24. After incubation, samples were prepared for HPLC analysis by adding ˜500 uL of ammonium acetate with ethanol extraction solvent, spun at 12,000 RPM for 5 minutes. The top ⅔ of the supernatant was removed for HPLC analysis. After HPLC stability analysis, multiple HPLC purity studies were performed to determine the relative amount of free copper compared to Pch-bound copper. To prepare for purity analysis, ˜150 uCi of Cu-64 was incubated for 1 hour with varying amounts of 1 mg/mL pyochelin ranging from 0.5 to 10 uL, with ammonium acetate being added to reach a maximum volume of 350 uL. Additional purity studies were conducted using ˜150 uCi of Cu-64 along with 10 uL of 1 mg/mL pyochelin and ammonium acetate, but involved varying incubation periods consisting of 10, 20, 30, 45, and 60 minutes at 37° C. […]

Data set [12] is described as follows: Radio chromatogram stability of gallium bound Pch in serum. Format: in vitro ADME.
Data set [13] relates to fptA expressing P. aeruginosa. As to the kind of experiment: PET/CT imaging and ex vivo biodistribution of Ga-68 pyochelin, P. aeruginosa. Format: in vivo, Pseudomonas aeruginosa. To be noted: mice, bacteria intranasally, probe retro-orbitally ~150-200uCi, PET/CT 1 hour after injection. How it is done:
as §4

The subject of data set [14] is non-fptA expressing organisms. The data set can be described thus: PET/CT imaging and ex vivo biodistribution of Ga-68 pyochelin, non-fptA organisms. It is filed as in vivo. Conditions: mice with non-fptA expressing organisms.
The mark [15] stands for this setting: pH 3.5, 5.5, 7, 37° C. and 50° C.

Consider `CC(=O)N(O)CCCCCNC(=O)CCC(=O)N(O)CCCCCNC(=O)CCC(=O)N(O)CCCCCN` [DFO, desferrioxamine B], for which the “DFO complex, pH 3” value in data set [1] (20 mins) came out at 1; in data set [1] (60 mins) it was 1; in data set [2] (20 mins), 93; in data set [2] (60 mins), 92. Further, the “DFO complex, pH 5.5” value in data set [1] (20 mins) turned out to be 4; in data set [1] (60 mins), 1; in [2] (20 mins), 62; in [2] (60 mins), 98. Also, the “complexation between Ga-68 and DFO, in words” value in [2] (pH 3 and pH 5.5, 37° C.) was “high complexation”.
As to `CN1[C@@H]([C@H]2CSC(c3ccccc3O)=N2)SC[C@H]1C(=O)O` [PcH, pyochelin], the “Cu-64 screen with siderophore, pH 3” value in data set [3] (37° C., 60 mins) was 0; in [3] (90° C., 30 mins), 0. The “Cu-64 screen with siderophore, pH 5.5” value amounted to 85 in data set [3] (37° C., 60 mins) and 0 in data set [3] (90° C., 30 mins). Moreover, the “Cu-64 screen with siderophore, pH 7.0” value in data set [3] (37° C., 60 mins) stood at 95; in data set [3] (90° C., 30 mins), 0. The “Cu-64 screen with siderophore, pH 9” value was 0 in data set [3] (37° C., 60 mins) and 0 in data set [3] (90° C., 30 mins). Further, in data set [3] (in vitro studies), the “complexation of pyochelin with copper-64, in words” value is “complexes extremely well”. Moreover, the “binding affinity between Cu-64 and PcH” value in data set [3] (pH 5.5 and pH 7, 37° C.) is given as “high binding affinity”. For the same compound, the “pH 3.5 (% complex)” value is given as 33.1 % complex in data set [4] (Titanium-45, pH 3.5, 37° C.); 1.2 % complex in data set [5] (Manganese-52, pH 3.5, 37° C.); 3 % complex in data set [6] (Lead-203, pH 3.5, 37° C.); 100 % complex in data set [7] (Gallium-68, pH 3.5, 37° C.); 22.8 % complex in data set [8] (Zirconium-89, pH 3.5, 37° C.). In addition, the “pH 5.5 (% complex)” value was 72.3 % complex in data set [4] (Titanium-45, pH 5.5, 37° C.); 2.2 % complex in data set [5] (Manganese-52, pH 5.5, 37° C.); 3 % complex in data set [6] (Lead-203, pH 5.5, 37° C.); 100 % complex in [7] (Gallium-68, pH 5.5, 37° C.); 73.7 % complex in data set [8] (Zirconium-89, pH 5.5, 37° C.). The “pH 7 (% complex)” value in [4] (Titanium-45, pH 7, 37° C.) was 60 % complex; in [5] (Manganese-52, pH 7, 37° C.), 1.1 % complex; in data set [6] (Lead-203, pH 7, 37° C.), 2 % complex; in data set [7] (Gallium-68, pH 7, 37° C.) it was 100 % complex; in data set [8] (Zirconium-89, pH 7, 37° C.) it was 75.6 % complex. Moreover, the “association between pyochelin and titanium-45 (TLC)” value in data set [4] (setting [15]) is given as “mostly poor association”. In addition, the “association between pyochelin and manganese-52 (TLC)” value in data set [5] (setting [15]) is “mostly poor association”. Besides, the “association between pyochelin and lead-203 (TLC)” value in [6] (setting [15]) is “mostly poor association”. In data set [7] (all three pH conditions (3.5, 5.5, 7) at 37° C.), the “complexation of gallium-68 with pyochelin” value is reported as 100%. Further, the “association between pyochelin and zirconium-89 (TLC)” value in data set [8] (setting [15]) is on record as “mostly poor association”.
With copper-64 bound pyochelin [Cu-64-Pch], the “uptake of probe in the lungs (imaging and radioactive biodistribution)” value in data set [9] (Balb/c mice infected with non-fptA expressing organisms, probe retro-orbitally ~150 uCi) is given as “limited uptake”; in [10] (Balb/c mice, bacteria intra-nasally, probe retro-orbitally ~150 uCi, PET/CT 48 hours after bacteria), “increased uptake”. The “transport of probe into bacterial cells (in vivo images)” value in data set [9] (bacterial cells that don't express the fptA receptor) is recorded as “not transported”; in [10] (P. aeruginosa cells), “transported into the P. aeruginosa cells”. Further, the “biodistribution levels in lungs” value in [10] (P. aeruginosa containing lungs) is reported as “elevated levels”. In addition, the “biodistribution and probe accumulation, intra-tracheal compared to intra-nasal bacterial administration” value in data set [10] (PA01 administered intra-tracheally vs intra-nasally) was “significant increase in biodistribution and probe accumulation”. Besides, in data set [11], the “stability after serum incubation (HPLC)” value was at least 91%.
For the compound gallium-68 bound pyochelin [Ga-68 Pch], the “stability in serum (radio chromatogram)” value in data set [12] is reported as “high stability in serum”. Also, the “uptake of probe in the lungs (in vivo imaging and ex vivo biodistribution)” value is “increased uptake” in data set [13] and “limited uptake” in data set [14].
